The source of these data is PubChem BioAssay (NCI).

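Cultured in 96-well plates, cells were exposed to test compound for 48 hours across five concentrations. Definition used: TGI = concentration required for complete inhibition of growth.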 Where a SMILES comes first, the peptide text is derived from it. The star is where a group is joined. Cbz = O=C(OCc1ccccc1)*

What all share (experiment): DTP human tumour cell line panel, 48 h
In assay [1] the test system is HL-60(TB) leukemia.
The test system of assay [2] is UACC-257 melanoma.
Assay [3] has as its system BT-549 breast.
In assay [4] the test system is HT29 colon.
The test system of assay [5] is SK-MEL-5 melanoma.
For assay [6], the system named is IGROV1 ovarian.
Assay [7] has as its system KM12 colon.
For assay [8], the system named is HCT-116 colon.
Assay [9] has as its system A549 NSCLC.

What is called TGI is the concentration at which net growth stops. A higher TGI goes with lower sensitivity of the cells. With `CCCCCCc1cc2cc(C(=O)Nc3ccc(F)cc3)c(=N)oc2cc1O`, the concentration for total growth inhibition (TGI) in assay [1] is 4.62 µM; in assay [2] it was 29.2 µM; in assay [3], 7.32 µM; in assay [4], > 100 µM; in [5], 3.28 µM; in assay [6], 4.47 µM. In addition, the figures for the TGI in assay [7], in assay [8] and in assay [9] were 10.1 µM, 11.1 µM and 14.9 µM, respectively.

Consider `COc1ccc(C2c3cc4c(cc3OC(N3CCOCC3)C2C)OCO4)cc1` (stereo unspecified), for which the concentration for total growth inhibition (TGI) was 91.2 µM in assay [1]; > 100 µM in assay [2]; > 100 µM in assay [3]; > 67.6 µM in assay [4]; 72.4 µM in [5]; > 100 µM in assay [6]. For the same molecule, the TGI in [7] is > 100 µM; in assay [8], > 100 µM; in assay [9] it was > 90.6 µM.

`CCOC(=O)CCC(NC(=O)C(Cc1ccccc1)NC(=O)OCc1ccccc1)C(=O)OCC` (stereo not drawn) (Cbz-Phe-Glu(OEt)-OEt; configuration not given here): the total growth inhibition concentration (TGI) in assay [1] was 41.2 µM; in assay [2], 30.5 µM; in assay [3] it was > 100 µM; in assay [4] it was 42.1 µM; in assay [5] it was 28.8 µM; in [6] it was 32.3 µM. In addition, the figures for the concentration for total growth inhibition (TGI) in [7], in assay [8] and in assay [9] were 32.6 µM, 32.1 µM and 36.9 µM, respectively.

In the case of `CN1CC=C(c2c(N)nc(N)[nH]c2=O)CC1`, the TGI in assay [1], in [2], in [3], in assay [4], in assay [5] and in [6] was > 100 µM throughout. For the same molecule, the TGI in [7], in assay [8] and in assay [9] was > 100 µM throughout.

As to `N/C(=N\S(=O)(=O)c1ccc(-c2ncccc2C(F)(F)F)s1)Nc1ccc(Cl)cc1`, the TGI was 46.4 µM in [1]; 14 µM in [2]; 29 µM in assay [3]; 39.3 µM in assay [4]; > 100 µM in [5]; 27.8 µM in [6]. Also, the results for the total growth inhibition concentration (TGI) in assay [7], in [8] and in assay [9] were 81.2 µM, 32.5 µM and 36.7 µM, respectively.

For `O=C1OCC2OC(=O)c3cc(O)c(O)c(O)c3-c3c(O)c(O)c(O)c4c3C(=O)OC(C2OC(=O)c2cc(O)c(O)c(O)c2-c2c1cc(O)c(O)c2O)C1OC(=O)C2C4=C(O)C(=O)C23Oc2cc(O)c4c(c2[C@H]13)O[C@H](c1ccc(O)c(O)c1)[C@@H](O)C4` (stereo partly specified), the total growth inhibition concentration (TGI) was 51.8 µM in assay [1]; > 100 µM in assay [2]; 83.3 µM in assay [3]; 42.7 µM in [4]; 33.8 µM in assay [5]; > 100 µM in assay [6]. In addition, the total growth inhibition concentration (TGI) in assay [7] is > 100 µM; in assay [8], 40.3 µM; in [9], > 100 µM.

As for `O=P1(Cc2ccccc2)N(Cc2ccccc2)[C@@H]2CCCC[C@H]2N1Cc1ccccc1`, the TGI in assay [1] is 19.8 µM; in [2], 20.1 µM; in [3] it was 33.8 µM; in assay [4] it was 18.6 µM; in assay [5], 3.57 µM; in [6], 19.4 µM. In addition, the TGI amounted to 22.4 µM in assay [7], 20 µM in assay [8] and 19.7 µM in assay [9].

As to `Cc1ccc(S(=O)(=O)C2=C(C(C)C)N=NC2(C)C)cc1`, the TGI in [1], in assay [2], in assay [3], in assay [4], in [5] and in assay [6] was > 100 µM throughout. The concentration for total growth inhibition (TGI) in [7], in assay [8] and in assay [9] was > 100 µM throughout.

Regarding `CCOC(=O)c1ccc(-c2ccc(Cl)cc2)[nH]1`, the TGI in [1], in assay [2], in [3], in assay [4], in assay [5] and in [6] was > 10 µM in each case. The total growth inhibition concentration (TGI) in assay [7], in [8] and in assay [9] was > 10 µM in each case.

Turning to `CCOC(=O)C(Cc1ccc(O)cc1)Nc1nc(=O)c2c(=O)oc(Cl)cc2o1` (stereo unspecified), the total growth inhibition concentration (TGI) was 13.5 µM in assay [1]; 29.7 µM in assay [2]; 14.1 µM in assay [3]; 13.2 µM in [4]; > 49 µM in assay [5]; 19.4 µM in assay [6]. Further, the total growth inhibition concentration (TGI) was found to be 22.5 µM in [7], 20.9 µM in assay [8] and 34.7 µM in [9].

Take `O=c1[nH]c2nc3ccccc3c(=O)n2/c1=C/c1cccs1`: the concentration for total growth inhibition (TGI) in [1], in assay [2], in [3], in [4], in assay [5] and in assay [6] was > 100 µM throughout. For the same molecule, the TGI in assay [7], in assay [8] and in assay [9] was > 100 µM each time.

For `COCn1cnc2c(=O)nc(SC)n(-c3ccccc3)c21`, the total growth inhibition concentration (TGI) in assay [1], in assay [2], in assay [3], in assay [4], in [5] and in assay [6] was > 100 µM each time. Besides, the concentration for total growth inhibition (TGI) in assay [7], in assay [8] and in assay [9] was > 100 µM throughout.

On to `Cc1[nH]n(-c2nc(O)c(-c3ccccc3)c(=O)[nH]2)c(=O)c1CCO`, for which the concentration for total growth inhibition (TGI) in assay [1], in assay [2], in assay [3], in assay [4], in [5] and in assay [6] was > 100 µM each time. Besides, the concentration for total growth inhibition (TGI) in assay [7], in [8] and in assay [9] was > 100 µM in each case.

On to `CS(=O)(=O)N1CC(CCl)c2ccc(O)cc21` (stereo unspecified), for which the TGI in assay [1] stood at 6.19 µM; in assay [2] it was 5.95 µM; in assay [3] it was 8.35 µM; in [4], 14.2 µM; in assay [5] it was 3.46 µM; in assay [6], 4.5 µM. In addition, the total growth inhibition concentration (TGI) in assay [7] was 7.83 µM; in [8], 11.1 µM; in assay [9], 11.1 µM.

Take `COCCn1cnc2c(Cl)nc(Nc3ccccc3)nc21`: the total growth inhibition concentration (TGI) in assay [1] was 63.3 µM; in assay [2], > 100 µM; in [3], 99 µM; in assay [4], > 100 µM; in [5], > 100 µM; in assay [6], 50.9 µM. In addition, the total growth inhibition concentration (TGI) in [7], in assay [8] and in [9] was > 100 µM throughout.

On to `CC(=O)SC(C[N+](=O)[O-])c1ccc2c(c1)OCO2` (stereo unspecified), for which the TGI in assay [1] turned out to be 4.67 µM; in [2], 22.3 µM; in assay [3], 14.2 µM; in [4], 5.56 µM; in [5] it was 19.9 µM; in assay [6], 19.8 µM. Further, the total growth inhibition concentration (TGI) in assay [7] stood at 12.7 µM; in assay [8], 5.22 µM; in assay [9], 24.1 µM.

`COc1cccc(CC(=O)N2CCN(CCCc3ccccc3)CC2)c1`: the concentration for total growth inhibition (TGI) is > 100 µM in assay [1]; > 100 µM in assay [2]; > 100 µM in [3]; > 100 µM in assay [4]; 77.1 µM in [5]; > 100 µM in assay [6]. The TGI in assay [7], in assay [8] and in [9] was > 100 µM in each case.

With `COc1cc(Nc2nc3cc(C(F)(F)F)ccc3nc2C(=O)O)cc(OC)c1OC`, the TGI in assay [1], in assay [2], in assay [3], in assay [4], in assay [5] and in assay [6] was > 100 µM in each case. The TGI in assay [7], in [8] and in assay [9] was > 100 µM each time.

In the case of `CC(=O)NC1C(Sc2ncn(C3OC(CO)C(O)C(O)C3NC(C)=O)n2)OC(CO)C(O)C1O` (stereo unspecified), the TGI in [1], in assay [2], in assay [3], in assay [4], in [5] and in [6] was > 100 µM throughout. Besides, the TGI in [7], in assay [8] and in [9] was > 100 µM throughout.

Take `O=C1CCSCCC(=O)Nc2ccccc2N1`: the concentration for total growth inhibition (TGI) in [1], in assay [2], in assay [3], in assay [4], in assay [5] and in [6] was > 100 µM throughout. Besides, the TGI in assay [7], in assay [8] and in [9] was > 100 µM each time.

For the molecule `O=C1C(Br)=CC2(C=C1Br)CCNC1=C2C(=O)c2ncccc2C1=O`, the TGI in assay [1] is 8.26 µM; in assay [2], 1.89 µM; in assay [3], 2.73 µM; in assay [4] it was 4.56 µM; in [5] it was 1.62 µM; in assay [6], 2.03 µM. Also, the TGI was determined as 3.53 µM in [7], 1.74 µM in [8] and 3.32 µM in assay [9].

As to `CCCCC1Cc2cc(O)ccc2-c2nc3cc(O)ccc3n21` (stereo unspecified) (tested in a mixture with another compound), the TGI turned out to be 41.9 µM in [1]; 45.6 µM in [2]; 41.6 µM in assay [3]; 31.9 µM in assay [4]; 26.3 µM in [5]; 28.9 µM in assay [6]. Besides, the TGI in [7] was found to be 75.1 µM; in assay [8], 27 µM; in assay [9], 38.6 µM.

In the case of `CCOc1cc(NC(C)=O)ccc1C(=O)NNS(=O)(=O)c1ccc(NC(C)=O)cc1`, the TGI in assay [1] was 78.8 µM; in [2], > 100 µM; in [3] it was > 100 µM; in [4] it was > 100 µM; in assay [5] it was 69.3 µM; in assay [6], > 100 µM. In addition, the total growth inhibition concentration (TGI) in assay [7], in [8] and in assay [9] was > 100 µM in each case.

With `O=C1c2c(Br)sc(Br)c2C(=O)C1(O)O`, the total growth inhibition concentration (TGI) in [1] is > 100 µM; in assay [2], 37.4 µM; in assay [3], 37.9 µM; in assay [4] it was > 100 µM; in assay [5], 42.6 µM; in assay [6], > 100 µM. The TGI is > 100 µM in assay [7], 38.4 µM in assay [8] and > 100 µM in assay [9].

With `S=C1NCCN1C(=S)Nc1ccccc1`, the concentration for total growth inhibition (TGI) in assay [1], in assay [2], in assay [3], in [4], in assay [5] and in assay [6] was > 100 µM in each case. The total growth inhibition concentration (TGI) in [7], in assay [8] and in assay [9] was > 100 µM in each case.

As for `Cc1ccnc2c1C(=O)C1=C(OC(C)(C)CC1O)C2=O` (stereo unspecified), the TGI is > 24 µM in assay [1]; 3.47 µM in assay [2]; 12.7 µM in [3]; 10.8 µM in [4]; 2.6 µM in assay [5]; 11.3 µM in assay [6]. For the same molecule, the figures for the TGI in assay [7], in assay [8] and in [9] were 15 µM, 9.98 µM and 21.6 µM, respectively.

For the molecule `O=c1cc(NNc2cccc(Cl)c2)[nH]c(=O)[nH]1`, the TGI was 43.9 µM in [1]; > 100 µM in [2]; > 100 µM in assay [3]; > 100 µM in assay [4]; > 100 µM in assay [5]; > 100 µM in assay [6]. Also, the TGI in assay [7] was > 100 µM; in assay [8], 31.9 µM; in assay [9], > 100 µM.

As for `CC(NC(=O)c1c(O)[nH]c(=S)[nH]c1=O)c1ccc([N+](=O)[O-])cc1` (stereo unspecified), the TGI in assay [1], in [2], in assay [3], in assay [4], in [5] and in [6] was > 100 µM in each case. Also, the total growth inhibition concentration (TGI) in assay [7], in assay [8] and in [9] was > 100 µM each time.

`O=C1C=C(Nc2ccc(S(=O)(=O)Nc3nccs3)cc2)c2ccccc2C1=O`: the TGI was 59.8 µM in assay [1]; > 100 µM in assay [2]; 40.8 µM in assay [3]; 39.3 µM in assay [4]; 38.7 µM in assay [5]; > 100 µM in [6]. Besides, the total growth inhibition concentration (TGI) in [7] was 37.7 µM; in [8], > 100 µM; in assay [9], > 100 µM.
